For series [1], the system named is Mus musculus. The series can be described thus: Anti-inflammatory activity against C57BL/6J mouse model of TNFalpha-induced systemic inflammatory response syndrome (SIRS) assessed as decrease in IL-6 level in spleen at 1.25 to 5 mg/kg,po 2 hrs prior to mTNFalpha and z-VAD-FMK stimulation for 8 hrs by ELISA. The conditions noted are these: dose 1.25-5 mg/kg, time 10.0 hrs. The class given is functional, organism-based.

Series [2] has as its system HT-29. In words: Anti-apoptotic activity against human HT-29 cells assessed as inhibition of TS (human TNFalpha, Smac mimetic) induced apoptosis upto 1 uM pretreated with compound followed […] for 24 hrs by CellTiter-Glo Luminescent cell viability assay. The class given is functional, cell-based.
The test system of series [3] is Mus musculus. The series can be described thus: Anti-inflammatory activity against C57BL/6J mouse model of TNFalpha-induced systemic inflammatory response syndrome (SIRS) assessed as decrease in IL-6 level in liver at 1.25 to 5 mg/kg,po 2 hrs prior to mTNFalpha and z-VAD-FMK stimulation for 8 hrs by ELISA. The series is classed as functional, organism-based. The settings on record: dose 1.25-5 mg/kg, time 10.0 hrs.

Series [4] can be described thus: Acute toxicity in mouse assessed as pathological damage in spleen at 100 to 200 mg/kg,IG and measured after 14 days by H and E staining based microscopy. The class given is organism-based. The settings on record: in vivo, po, 336 h, dose 100-200 mg/kg, time 14 day.
The test system of series [5] is Mus musculus. In words: Anti-inflammatory activity against C57BL/6J mouse model of TNFalpha-induced systemic inflammatory response syndrome (SIRS) assessed as decrease in IL-6 level in intestine at 1.25 to 5 mg/kg,po 2 hrs prior to mTNFalpha and z-VAD-FMK stimulation for 8 hrs by ELISA. The class given is functional, organism-based. The conditions noted are these: dose 1.25-5 mg/kg, time 10.0 hrs.

The subject of series [6] is Mus musculus. In words: Anti-inflammatory activity against C57BL/6J mouse model of TNFalpha-induced systemic inflammatory response syndrome (SIRS) assessed as decrease in […] IL-1beta level in heart at 1.25 to 5 mg/kg,po 2 hrs prior to mTNFalpha and z-VAD-FMK stimulation for 8 hrs by ELISA. The conditions noted are these: dose 1.25-5 mg/kg, time 10.0 hrs. The series is classed as functional, organism-based.

Series [7] deals with Mus musculus. The series can be described thus: Anti-inflammatory activity against C57BL/6J mouse model of TNFalpha-induced systemic inflammatory response syndrome (SIRS) assessed as increase in survival rate at 5 mg/kg,po 2 hrs prior to mTNFalpha and z-VAD-FMK stimulation and measured upto 24 hrs. The conditions noted are these: time 26 hrs. The series is classed as functional.

Series [8] has as its system HT-29. In words: Anti-apoptotic activity against human HT-29 cells assessed as inhibition of TC (human TNFalpha, cycloheximide) induced apoptosis upto 20 uM pretreated with compound followed by TC stimulation for 36 hrs by CellTiter-Glo Luminescent cell viability assay. The class given is functional, cell-based.
In series [9] the test system is Mus musculus. The series can be described thus: Anti-inflammatory activity against C57BL/6J mouse model of TNFalpha-induced systemic inflammatory response syndrome (SIRS) assessed as decrease in IL-1beta level in intestine at 1.25 to 5 mg/kg,po 2 hrs prior to mTNFalpha and z-VAD-FMK stimulation for 8 hrs by ELISA. The series is classed as functional, organism-based. The settings on record: dose 1.25-5 mg/kg, time 10.0 hrs.

A short description of series [10]: Acute toxicity in mouse assessed as pathological damage in brain at 100 to 200 mg/kg,IG and measured after 14 days by H and E staining based microscopy. The class given is organism-based. The conditions noted are these: in vivo, po, 336 h, dose 100-200 mg/kg, time 14 day.

The values below come from ChEMBL document CHEMBL5370665, “Insight from Linker Investigations: Discovery of a Novel Phenylbenzothiazole Necroptosis Inhibitor Targeting Receptor-Interacting Protein Kinase 1 (RIPK1) from a Phenoxybenzothiazole Compound with Dual RIPK1/3 Targeting Activity” (J Med Chem, 2023).

SMILES strings stand for the structures. Calls of active or inactive are those of the source. The rule behind the calls is not given here.

For `O=C(Cc1cccc(OC(F)(F)F)c1)Nc1cc(-c2ccc3nc(NC(=O)C4CC4)sc3c2)ccc1F`, the Activity result was “Dose-Dependent Effect” in the series on Mus musculus [1]; “Dose-Dependent Effect” in the series on Mus musculus [3]; “Non-Toxic” in [4]; “Dose-Dependent Effect” with Mus musculus [5]; “Non-Toxic” in [10]. The result with HT-29 [2] and in the series with HT-29 [8] was inactive. Also, the result with Mus musculus [6] and in the series with Mus musculus [9] was Active. Also, the survival at 5 mg/kg in the series with Mus musculus [7] was 100%.
